Values after ≈ are worked out from the molar mass of the structure shown.

The subject of one assay is LS174T. Put plainly: Concentration required to inhibit the incorporation of [3H]leucine to 50 percent of control uptake in LS174T (CEA +ve) Human Colon Carcinoma cells. In kind it is functional, cell-based.
Assay [1] can be described thus: Conjugation ratio (CR) indicating the number of moles of compound required per 1 mole of antibody (having Molar input ratio (MIR) = 8) was determined.

`COc1ccc(C(Nc2nc(N)nc3c2ncn3[C@@H]2O[C@H](CO)[C@@H](O)C2(F)F)(c2ccc(C)cc2)c2ccc(C(N)=O)cc2)cc1` (stereo partly drawn) had an IC50 with LS174T of 2.71 µg/mL (≈ 4.29 µM). Also, the CR in assay [1] was 7.49.

In the assay with LS174T, `Cc1ccc(C(Nc2nc(N)nc3c2ncn3[C@@H]2O[C@H](CO)[C@@H](O)C2(F)F)(c2ccccc2)c2ccc(C(N)=O)cc2)cc1` (stereo partly drawn) registered an IC50 of 6.04 µg/mL (≈ 10 µM). Further, in assay [1], the CR amounted to 5.2. In the same order, the values of `COc1ccc(C(Nc2nc(N)nc3c2ncn3[C@@H]2O[C@H](CO)[C@@H](O)C2(F)F)(c2ccc(OC)cc2)c2ccc(C(N)=O)cc2)cc1` are 0.27 µg/mL (≈ 0.417 µM) and 7.44.

On to `COc1ccc(C(Nc2nc(N)nc3c2ncn3[C@@H]2O[C@H](CO)[C@@H](O)C2(F)F)(c2ccc(OC)cc2)c2cccc(C(N)=O)c2)cc1`, for which it took 0.352 µg/mL (≈ 0.544 µM) to reach half-maximal inhibition in the assay on LS174T (IC50). Besides, in assay [1], the CR was found to be 6.44.

Regarding `Nc1nc(N)c2ncn([C@@H]3O[C@H](CO)[C@@H](O)C3(F)F)c2n1`, half-maximal inhibition with LS174T (IC50) was put at 0.26 µg/mL (≈ 0.86 µM). `COc1ccc(C(Nc2nc(N)nc3c2ncn3[C@@H]2O[C@H](CO)[C@@H](O)C2(F)F)(c2ccccc2)c2ccc(C(N)=O)cc2)cc1` (stereo partly drawn): the IC50 with LS174T came out at 4.94 µg/mL (≈ 8 µM). In addition, in assay [1], the CR amounted to 5.73. In the same order, the values of `NC(=O)c1ccc(C(Nc2nc(N)nc3c2ncn3[C@@H]2O[C@H](CO)[C@@H](O)C2(F)F)(c2ccccc2)c2ccccc2)cc1` are 10 µg/mL (≈ 17 µM) and 4.44.
